# Read-outs that look alike come from different tables or passages of the source.
# How the values were obtained:
# [1] = target: α1 glycine receptor (Homo sapiens (Human), UniProt P23415); experiment: Expression and electrophysiological characterization of glycine receptor activity (patch/voltage clamp); assay type: cell-based; settings: modulation of agonist induced currents at glycine EC20; means ± s.d.
# Protocol: Human embryonic kidney (HEK) 293 cells (ATCC CRL 1573) and/or Xenopus laevis oocytes were used for expressing the human a1-3 glycine receptor subunit as well as human a1, b3, g2 GABA receptor subunit cDNAs inserted into mammalian expression vectors. Patch- and voltage-clamp recording from receptor expressing cells was performed at a holding potential of −70 mV in normal Ringer solution and digitized for analyses. Dose-response curves of agonist induced peak currents (I) were normalized to the maximal current value obtained and fitted with the sigmoidal Hill equation using a Gauss Marquardt iteration, where EC50 represents the glycine/GABA concentration resulting in a half maximal response. Effects of the compounds tested on agonist induced currents were analysed after superfusing the cells with the respective compound for 5 seconds prior to and during agonist application and dose-response curves of modulated currents were determined in the presence of agonist concentrations eliciting a response corresponding to 20% of the maximal inducible current (EC20 value). Results represent means±s.d. and the significance of the data was evaluated using Student's paired t test and considered to be statistically significant at P<0.05.
# [2] = Pharmacokinetic evaluation, oral dosing in rats; assay type: in vivo, rat; settings: 10 mg/kg oral
# Protocol: • Dose—10 mg/kg (5 mL/kg) • Route—ORAL • Vehicles—10% DMSO/10% Solutol and SSV • Time—24 h • Procedure Number—6 Vehicles • 10% DMSO/10% Solutol/80% Saline • 1) Compound was weighed out into a clean vial. • 2) DMSO was added into the vial; the vial was vortexed and sonicated it for 15 min. • 3) Solutol HS 15 was heated at 50° C. until a liquid formed, and then was added into the vial. The vial was vortexed for 1-2 min. • 4) 0.9% Saline solution was added to the vial. The vial was vortexed and then sonicated for 10 min. Standard Suspension Vehicle (SSV) • 1) A solution of SSV was made using 0.5% Sodium carboxymethylcellulose, 0.5% Benzyl alcohol, 0.4% Tween80 and 98.6% saline (0.9%) • 2) Compound was weighed out into a clean vial • 3) SSV solution was added into the vial; the vial was vortexed and sonicated it for 15 min. Fasted Rats
# Fasted rats were fasted overnight and given access to food immediately after dosing.
# • 1) Rats were manually restrained and given a 10 mg/kg oral dose of compound at 5 mL/kg. • 2) At designated time points (0.25, 0.5, 1, 3, 5, 7 and 24 hours) the rats were anaesthetised using isoflurane. • 3) Approximately 300 μL of blood was taken from the tail vein using a 1.5 inch needle treated with heparin and collected into 1.5 mL eppendorf tubes. • 4) After sampling, pressure was applied to the puncture until bleeding ceased. The animals were returned to their cages and given free access to food and water. • 5) Blood samples were stored on ice and then centrifuged at 13,000 rpm for 15 min to separate the plasma. • 6) 150 μL of the plasma was treated with 300 μL of ACN:MeOH (1:1) solution containing the internal standard. The samples were then centrifuged for a further 15 min at 13,000 rpm. • 7) 200 μL of the supernatant was collected and placed in LC-MS vials for analysis. All samples were stored at −80° C. Results
# [3] = tested on: neuropathic rats; experiment: Comparison of LT-01-25 and LT-01-89: ipsilateral paw withdrawal thresholds to mechanical pressure in neuropathic rats; assay type: in vivo, rat; settings: male SD rats
# Protocol: Male, SD rats. n=6/group. Vehicle: 10% DMSO/10% Solutol HS15/80% saline.
# • 1) In rats a peripheral neuropathy was induced by partial ligation of the sciatic nerve in one hind limb. • 2) Two weeks (12-15 days) after induction of peripheral neuropathy stable mechanical (tactile) allodynia was induced in the hind paw of the affected limb. • 3) Five treatment groups of male SD rats (n=8) were used: vehicle control (drug formulation), 3 drug doses, and a positive control, lamotrigine (30 mg/kg). Animals were randomized between groups and the experiment was carried out using blinded conditions. The study was split with n=4/group in each experiment. • 4) Baseline behavioural measurements were obtained prior to surgery and at intervals post-surgery. Predose behavioural measurements were obtained by measuring paw withdrawal thresholds 12-15 days following nerve ligation. • 5) Compound efficacy was determined by measuring paw withdrawal thresholds at specified intervals following vehicle/compound treatment. Methods Animals
# Animals were maintained in a controlled lighting environment and given food and water ad libitum. Male Sprague Dawley rats (120-140 g at time of surgery) were used.
# Rats were fasted overnight with free access to water and fed 4 hours post-dose.
# Tests compounds as well as Lamotrigine (30 mg/kg, volume: 10 ml/kg)) were prepared in the designated formulation (10% DMSO, Solutol HS 15/80% and 0.9% saline for p.o. administration) and administered via the chosen route.
# Rats were anaesthetised (isoflurane/O2 inhalation), the left sciatic nerve was exposed at mid-thigh level through a small incision and ⅓ to ½ of the nerve thickness tightly ligated within a 7.0 silk suture. The wound was closed with skin clips. Animals were allowed to recover and compounds administered 12-15 days following surgery.
# Compound/vehicle were administered at specified doses. Following treatment, further readings were taken; 1, 3, 6 and 24 hour after p.o. administration.
# [4] = tested on: neuropathic rats; experiment: Comparison of LT-01-25 and LT-01-89: ipsilateral withdrawal latencies to cold (10° C.) stimulus in neuropathic rats; assay type: in vivo, rat; settings: male SD rats
# [5] = Cerebrospinal fluid (CSF) levels after oral dosing; assay type: in vivo; settings: p.o. dose 3 mg/kg, after 2 hr, fasted male SD rat
# [6] = Rat microsomal stability; assay type: in vitro ADME; settings: for half-life at 1 μM: rat, rat microsomes
# Source text: Rat and human microsomal stability data was obtained using well established protocols known to those skilled in the art.
# [7] = Human microsomal stability; assay type: in vitro ADME
# Protocol: The metabolic stability assay was performed by incubating each test compound (1 μM) with human liver microsomes in duplicate at 37° C. and 0.4 mg/mL protein concentration. The metabolic reaction was initiated by the addition of a NADPH-regenerating system (i.e. NADPH is the cofactor required for CYP450-mediated metabolism) and quenched at various time points over the 60 minute incubation period by the addition of acetonitrile. Control samples (containing no NADPH) were included (and quenched at 2, 30 and 60 minutes) to monitor for potential degradation in the absence of cofactor. Samples were analysed by UPLC-MS (Waters/Micromass Xevo G2 QTOF) under positive electrospray ionisation and MS spectral data acquired in a mass range of 80 to 1200 Daltons.
# Test compound concentration versus time data were fitted to an exponential decay function to determine the first-order rate constant for substrate depletion. In cases where clear deviation from first-order kinetics was evident, only the initial linear portion of the profile was utilised to determine the degradation rate constant (k). Each substrate depletion rate constant was then used to calculate: [1] a degradation half-life, [2] an in vitro intrinsic clearance value (CLint, in vitro); [3] a predicted in vivo hepatic intrinsic clearance value (CLint); [4] a predicted in vivo blood clearance value (CLblood); and [5] a predicted in vivo hepatic extraction ratio (EH).
# • 1) The substrate concentration employed is well below the apparent KM for substrate turnover; and, • 2) There is no significant product inhibition, nor is there any mechanism-based inactivation of enzyme. The use of hepatic microsomes in the prediction of the in vivo hepatic extraction ratio has two further inherent assumptions (Obach, 1999) which: • 1) NADPH-dependent oxidative metabolism predominates over other metabolic routes (i.e. direct conjugative metabolism, reduction, hydrolysis, etc.); and, • 2) Rates of metabolism and enzyme activities in vitro are truly reflective of those that exist in vivo. Data should be considered within these terms of reference.
# [8] = tested on: neuropathic rats; experiment: Mechanical hyperalgesia, paw withdrawal thresholds in neuropathic rats (partial sciatic nerve ligation); assay type: in vivo, rat; settings: neuropathic Wistar rats, p.o.; peak occurred at 3h
# Source text: (§1) The wound was closed with skin clips.
# (§2) Control animals received vehicle alone.
# [9] = tested on: neuropathic rats; experiment: Cold sensitivity (10° C. cold plate), paw withdrawal latencies in neuropathic rats; assay type: in vivo, rat; settings: neuropathic Wistar rats, p.o.; peak occurred at 1h
# Source text: as §1, §2
# [10] = Rat microsomes, 1 μM, second set marked *
# [11] = 10% DMSO/10% Solutol/80% Saline, fasted rats
# [12] = 10% DMSO/10% Solutol/80% Saline, non-fasted rats
# [13] = rat, plasma, po, 10 mg/kg, 10% DMSO/10% Solutol/80% Saline, fasted rats
# [14] = rat, plasma, po, 10 mg/kg, 10% DMSO/10% Solutol/80% Saline, non-fasted rats
# [15] = rat, plasma, po, 10 mg/kg, SSV, fasted rats
# [16] = rat, plasma, po, 10 mg/kg, SSV, non-fasted rats
# α1 glycine receptor, sequence (P23415 29-457 limits assumed): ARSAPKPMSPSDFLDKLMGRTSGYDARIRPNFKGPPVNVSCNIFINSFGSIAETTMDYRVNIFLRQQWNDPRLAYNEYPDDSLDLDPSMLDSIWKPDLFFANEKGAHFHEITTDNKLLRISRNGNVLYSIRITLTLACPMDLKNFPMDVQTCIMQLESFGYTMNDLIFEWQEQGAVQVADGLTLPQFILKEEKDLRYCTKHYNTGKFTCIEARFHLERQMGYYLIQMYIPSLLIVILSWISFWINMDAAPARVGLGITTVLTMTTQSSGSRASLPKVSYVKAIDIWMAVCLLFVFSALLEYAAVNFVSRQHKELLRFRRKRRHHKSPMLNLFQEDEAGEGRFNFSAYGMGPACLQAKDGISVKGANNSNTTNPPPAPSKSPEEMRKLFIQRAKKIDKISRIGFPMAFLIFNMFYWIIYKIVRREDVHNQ
smiles,measurement,setting,value
"CC(C)c1cc(C(=O)N2CCO[C@H](C)C2)cc(C(C)C)c1O [Example 2, (R)-(4-(hydroxy)-3,5-diisopropylphenyl)(2-methylmorpholino)methanone]",EC50,[1],0.06 nM
"CC(C)(C)c1cc(C(=O)N2CCOCC2)cc(C(C)(C)C)c1O [LT-01-89, (4-(hydroxy)-3,5-di-tertbutyl)(morpholino)methanone, reference compound]",AUC∞ (area),"[2]; SSV, non-fasted rats",5931.7 ng·h/mL
same,CL (area)/kg,"[2]; SSV, non-fasted rats",1076.8 mL/h/kg
same,Cmax,"[2]; SSV, non-fasted rats",471.2 ng/mL
same,Half Life,"[2]; SSV, non-fasted rats",20.4 h
same,Tmax,"[2]; SSV, non-fasted rats",1.2 h
same,Vd (area)/kg,"[2]; SSV, non-fasted rats",32729.9 mL/kg
same,Mechanical pressure Percentage reversal of predose hyperalgesia,"[3]; 30 mg/kg p.o., 1 hr",1 hr - - - 70%
same,Mechanical pressure Percentage reversal of predose hyperalgesia,"[3]; 30 mg/kg p.o., 3 hr",3 hr - - - 50%
same,Mechanical pressure Percentage reversal of predose hyperalgesia,"[3]; 30 mg/kg p.o., 6 hr",6 hr - - - 20%
same,Cold (10° C.) Stimulus Percentage reversal of predose Hyperalgesia,"[4]; 30 mg/kg p.o., 1 hr",1 hr - - - 70%
same,Cold (10° C.) Stimulus Percentage reversal of predose Hyperalgesia,"[4]; 30 mg/kg p.o., 3 hr",3 hr - - - 65%
same,Cold (10° C.) Stimulus Percentage reversal of predose Hyperalgesia,"[4]; 30 mg/kg p.o., 6 hr",6 hr - - - 10%
same,CSF levels,[5],27 ng/mL
same,CSF levels as multiple of EC50,[5],(180 × EC50)
same,Cl,"[6]; Rat microsomes, 1 μM",20.38 mL/min/kg
same,t1/2,"[6]; Rat microsomes, 1 μM",121 min
same,Cl (values marked *),[6]; [10],5.26 mL/min/kg (Cl)*
same,t1/2 (values marked *),[6]; [10],165 min (t1/2)*
same,Cl (values marked *),"[7]; human microsomes, 1 μM",6.2 mL/min/kg (Cl) *
same,t1/2 (values marked *),"[7]; human microsomes, 1 μM",138.6 min (t1/2) *
"CC(C)c1cc(C(=O)N2CCOCC2)cc(C(C)C)c1O [LT-01-25, (4-(hydroxy)-3,5-diisopropylphenyl)(morpholino)methanone]","Peak reversal, mechanical (paw pressure)",[8],90%
same,"Peak reversal, cold (10° C. cold plate)",[9],93%
same,CL (area)/kg,[2]; [11],1171.9 mL/h/kg
same,Vd (area)/kg,[2]; [11],2300.6 mL/kg
same,CL (area)/kg,[2]; [12],505.4 mL/h/kg
same,Vd (area)/kg,[2]; [12],973.7 mL/kg
same,CL (area)/kg,"[2]; SSV, fasted rats",551.6 mL/h/kg
same,Vd (area)/kg,"[2]; SSV, fasted rats",1142.6 mL/kg
same,CL (area)/kg,"[2]; SSV, non-fasted rats",519.7 mL/h/kg
same,Half Life,"[2]; SSV, non-fasted rats",3.6 h
same,Vd (area)/kg,"[2]; SSV, non-fasted rats",2710.9 mL/kg
same,AUC(0-inf),[2]; [13],8530 ng·h/mL
same,half-life,[2]; [13],84 min
same,Cmax,"[2]; rat, plasma, po, 10 mg/kg, 10% DMSO/10% Solutol/80% Saline, fasted rats, read-out: Cmax",2420 ng/mL
same,Tmax,"[2]; rat, plasma, po, 10 mg/kg, 10% DMSO/10% Solutol/80% Saline, fasted rats, read-out: Tmax",0.3 h
same,AUC(0-inf),[2]; [14],20400 ng·h/mL
same,half-life,[2]; [14],84 min
same,Cmax,"[2]; rat, plasma, po, 10 mg/kg, 10% DMSO/10% Solutol/80% Saline, non-fasted rats, read-out: Cmax",1710 ng/mL
same,Tmax,"[2]; rat, plasma, po, 10 mg/kg, 10% DMSO/10% Solutol/80% Saline, non-fasted rats, read-out: Tmax",4 h
same,AUC(0-inf),[2]; [15],18100 ng·h/mL
same,half-life,[2]; [15],84 min
same,Cmax,"[2]; rat, plasma, po, 10 mg/kg, SSV, fasted rats, read-out: Cmax",2590 ng/mL
same,Tmax,"[2]; rat, plasma, po, 10 mg/kg, SSV, fasted rats, read-out: Tmax",1 h
same,AUC(0-inf),[2]; [16],19000 ng·h/mL
same,half-life,[2]; [16],217 min
same,Cmax,"[2]; rat, plasma, po, 10 mg/kg, SSV, non-fasted rats, read-out: Cmax",2120 ng/mL
same,Tmax,"[2]; rat, plasma, po, 10 mg/kg, SSV, non-fasted rats, read-out: Tmax",0.25 h
same,Mechanical pressure Percentage reversal of predose hyperalgesia,"[3]; 10 mg/kg p.o., 1 hr",1 hr - - - 80%
same,Mechanical pressure Percentage reversal of predose hyperalgesia,"[3]; 10 mg/kg p.o., 3 hr",3 hr - - - 90%
same,Mechanical pressure Percentage reversal of predose hyperalgesia,"[3]; 10 mg/kg p.o., 6 hr",6 hr - - - 40%
same,Cold (10° C.) Stimulus Percentage reversal of predose Hyperalgesia,"[4]; 10 mg/kg p.o., 1 hr",1 hr - - - 85%
same,Cold (10° C.) Stimulus Percentage reversal of predose Hyperalgesia,"[4]; 10 mg/kg p.o., 3 hr",3 hr - - - 35%
same,Cold (10° C.) Stimulus Percentage reversal of predose Hyperalgesia,"[4]; 10 mg/kg p.o., 6 hr",6 hr - - - 35%
same,CSF levels,[5],95 ng/mL
same,CSF levels as multiple of EC50,[5],(900 × EC50)
same,Cl,"[6]; Rat microsomes, 1 μM",3.35 mL/min/kg
same,Cl (values marked *),[6]; [10],1.07 mL/min/kg (Cl)*
same,half-life at 1 μM,[6]; read-out: t1/2,741 min
same,half-life at 1 μM,"[6]; second set marked *, read-out: t1/2 (values marked *)",1160 min
same,half-life at 1 μM,"[7]; human liver microsomes, read-out: t1/2 (values marked *)",495 min
same,Cl (values marked *),"[7]; human microsomes, 1 μM",2.7 mL/min/kg (Cl) *

# Source: patent publication US9676786B2, “Pharmacologically active compounds” (The University of Liverpool, priority 2013, dated 2017)
